The values below come from patent US20080206447A1, “ORGANIC-ELECTROLUMINESCENCE-MATERIAL-CONTAINING SOLUTION, METHOD FOR FORMING ORGANIC ELECTROLUMINESCENCE THIN FILM AND ORGANIC ELECTROLUMINESCENCE DEVICE” (Idemitsu Kosan Co., Ltd., priority 2007, published 2008).

Bounds are passed on as bounds.

Holding throughout (type): physicochemical
The nature of data set [1]: Viscosity of the solvent. The conditions noted are these: neat solvent, 22 degrees C. The procedure:
100 mg of a compound A represented by the following formula was put into a sample bottle, and a solvent was dropped thereinto while stirring until the compound A was completely dissolved. The solubility of the compound A in the solvent was calculated from an amount of the dropped solvent. The viscosity of the solvent was measured at the temperature of 22 degrees C.

Data set [2] in a line: Solubility in 4-isopropylbiphenyl at 0.5 wt % by visual check. Further details: key to Solubility: A: solution that contained no insoluble element; B: solution that contained insoluble element(s). The conditions noted are these: for Solubility: added to 4-isopropylbiphenyl at 0.5 wt %, visual check; for Solubility in 4-isopropylbiphenyl (in words): 0.5 wt %. An excerpt: The results are shown in Table 2, where solution that contained no insoluble element is rated as “A” while solution that contained insoluble element(s) is rated as “B”.

Data set [3] can be described thus: Solvent solubility of para-substituted naphthacene compound. Particulars: solvent not stated.

`Cc1ccc(Cc2ccc(C)c(C)c2)cc1C` [1,1-bis(3,4-dimethylphenyl)methane] returned a Viscosity in data set [1] of 33.6 cP. `CCc1cccc(-c2ccccc2)c1` [3-ethylbiphenyl] registered a Viscosity in data set [1] of 5.6 cP. The compound `CC(C)c1ccc(-c2ccccc2)cc1` [4-isopropylbiphenyl] showed a Viscosity in data set [1] of 6.9 cP. Consider `c1cc(-c2ccc(-c3ccc4ccccc4c3)cc2)cc(-c2c3ccccc3c(-c3ccc(-c4cccc5ccccc45)cc3)c3ccccc23)c1` [Compound B], for which the Solubility entry in data set [2] is recorded as “A”.

`c1ccc2cc(-c3ccc(-c4c5ccccc5c(-c5ccc(-c6cccc7ccccc67)cc5)c5ccccc45)cc3)ccc2c1` [Compound C]: the Solubility result in data set [2] is “A”. Take `c1ccc2cc(-c3ccc4cc(-c5c6ccccc6c(-c6ccc(-c7cccc8ccccc78)cc6)c6ccccc56)ccc4c3)ccc2c1` [Compound D]: the Solubility entry in data set [2] was “A”. Turning to `c1ccc(-c2cc(-c3ccc4ccccc4c3)cc(-c3c4ccccc4c(-c4ccc5ccccc5c4)c4ccccc34)c2)cc1` [Compound E], in data set [2], the Solubility entry was “A”. Turning to `c1cc(-c2ccc3ccccc3c2)cc(-c2c3ccccc3c(-c3cccc4ccccc34)c3ccccc23)c1` [Compound F], in data set [2], the “Solubility in 4-isopropylbiphenyl (in words)” value (“Solubility … (in words)” below) is recorded as “low solubility” and the Solubility result is reported as “B”. With `c1cc(-c2ccc3ccccc3c2)cc(-c2c3ccccc3c(-c3ccc4cc(-c5ccc6ccccc6c5)ccc4c3)c3ccccc23)c1` [Compound G], in data set [2], the “Solubility … (in words)” value is “low solubility” and the Solubility entry is on record as “B”. For `c1ccc(-c2ccc(-c3c4ccccc4c(-c4ccccc4)c4ccccc34)cc2)cc1` [Compound H], in data set [2], the “Solubility … (in words)” value is recorded as “low solubility” and the Solubility entry is reported as “B”. Consider `c1ccc(-c2c3ccccc3c(-c3cccc(-c4cccc(-c5c6ccccc6c(-c6ccccc6)c6ccccc56)c4)c3)c3ccccc23)cc1` [Compound I], for which, in data set [2], the “Solubility … (in words)” value is “low solubility” and the Solubility result is given as “B”. For `c1ccc(-c2ccc(-c3ccccc3)c(-c3ccc(-c4cc(-c5ccccc5)ccc4-c4ccccc4)c4cc5cc6ccccc6cc5cc34)c2)cc1` [Compound J], the Solubility entry in data set [2] was “A”. Regarding `c1ccc(-c2cc(-c3ccccc3)c(-c3c4ccccc4c(-c4ccccc4)c4cc5ccccc5cc34)c(-c3ccccc3)c2)cc1` [Compound K], the Solubility entry in data set [2] is given as “A”. With `c1ccc(-c2ccc(-c3c4ccccc4c(-c4ccc(-c5ccccc5)cc4-c4ccccc4)c4cc5ccccc5cc34)c(-c3ccccc3)c2)cc1` [Compound L], in data set [2], the “Solubility … (in words)” value is reported as “low solubility” and the Solubility result is given as “B”. For `c1ccc(-c2ccc(-c3c4ccccc4c(-c4ccc(-c5ccccc5)cc4)c4cc5ccccc5cc34)cc2)cc1` [Compound M], in data set [2], the “Solubility … (in words)” value was “low solubility” and the Solubility entry was “B”. On to `c1ccc(-c2c3ccccc3c(-c3ccccc3)c3c(-c4ccccc4)c4ccccc4c(-c4ccccc4)c23)cc1` [Compound N], for which, in data set [2], the “Solubility … (in words)” value is reported as “lower solubility than the compounds J, K” and the Solubility result is listed as “B”.

For `c1ccc(C2CCCCC2)cc1` [cyclohexyl benzene], in data set [1], the Viscosity is on record as 2.6 cP. On the same count and under the same terms, with `CCCCCCCCCCCCc1ccccc1` [dodecylbenzene] the figure was 4.5 cP.

In data set [3], `c1ccc(-c2ccc(-c3c4ccccc4c(-c4ccc(-c5ccccc5)cc4-c4ccccc4)c4cc5ccccc5cc34)c(-c3ccccc3)c2)cc1` [drawing 5] had a Solubility of at most 0.1 wt %. In turn, `Cc1cc(C)cc(C)c1` [mesitylene] displayed a Viscosity in data set [1] of 0.76 cP. On the same count and under the same terms, with `CCC(C)c1ccccc1` (centres unmarked) [s-butylbenzene] the figure was 1.0 cP. With `CC(C)(C)c1ccccc1` [t-butylbenzene], the Viscosity in data set [1] is reported as 1.2 cP. Turning to `c1ccc2c(c1)CCCC2` [tetralin], the Viscosity in data set [1] is on record as 2.3 cP. Compound `Cc1ccccc1` [toluene] returned a Viscosity in data set [1] of 0.65 cP. On to xylene, for which the Viscosity in data set [1] is 0.76 cP.
